The target of data set [1] is T1, BCRP (Homo sapiens, UniProt Q9UNQ0).
T1 sequence (Q9UNQ0 1-655): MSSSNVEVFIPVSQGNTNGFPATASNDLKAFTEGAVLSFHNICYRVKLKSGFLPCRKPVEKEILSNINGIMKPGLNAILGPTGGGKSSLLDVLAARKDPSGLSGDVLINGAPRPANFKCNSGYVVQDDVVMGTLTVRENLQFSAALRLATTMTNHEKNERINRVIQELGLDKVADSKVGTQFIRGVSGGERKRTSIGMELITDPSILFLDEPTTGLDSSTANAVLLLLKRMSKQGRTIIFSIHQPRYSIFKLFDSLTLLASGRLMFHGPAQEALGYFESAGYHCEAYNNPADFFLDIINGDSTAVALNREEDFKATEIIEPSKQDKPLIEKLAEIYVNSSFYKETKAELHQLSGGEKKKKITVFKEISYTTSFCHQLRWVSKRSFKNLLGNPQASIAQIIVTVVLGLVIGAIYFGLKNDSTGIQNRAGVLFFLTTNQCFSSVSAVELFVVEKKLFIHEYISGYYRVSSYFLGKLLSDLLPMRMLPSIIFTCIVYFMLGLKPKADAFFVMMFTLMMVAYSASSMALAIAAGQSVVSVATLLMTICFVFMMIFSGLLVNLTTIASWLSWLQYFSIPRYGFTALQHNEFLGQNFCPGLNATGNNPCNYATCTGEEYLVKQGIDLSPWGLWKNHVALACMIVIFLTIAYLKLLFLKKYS
The data set can be described thus: Clinical studies and physiologically based pharmacokinetic modeling of OM as perpetrator. Type of data set: in vivo. Also noted: from tissue. The note with it: clinical studies and PBPK modeling; result in words.
Text: (§1) OM may be administered with drugs that are substrates of CYP3A4, CYP2C8, P-gp or BCRP.

For another data set, the system named is patients with HFrEF. Particulars: result in words, cited from earlier work.
In data set [2] the target is T1, BCRP. The data set is described as follows: In vitro inhibition by OM. Type of data set: in vitro ADME. The note with it: result in words.
The target of another data set is MATE 2-K (Homo sapiens, UniProt Q86VL8). The data set can be described thus: In vitro inhibition by OM. Type of data set: in vitro ADME. Particulars: result in words.
In a further data set the target is T2, CYP2C8 (Homo sapiens, UniProt P10632).
T2 sequence (P10632 1-490): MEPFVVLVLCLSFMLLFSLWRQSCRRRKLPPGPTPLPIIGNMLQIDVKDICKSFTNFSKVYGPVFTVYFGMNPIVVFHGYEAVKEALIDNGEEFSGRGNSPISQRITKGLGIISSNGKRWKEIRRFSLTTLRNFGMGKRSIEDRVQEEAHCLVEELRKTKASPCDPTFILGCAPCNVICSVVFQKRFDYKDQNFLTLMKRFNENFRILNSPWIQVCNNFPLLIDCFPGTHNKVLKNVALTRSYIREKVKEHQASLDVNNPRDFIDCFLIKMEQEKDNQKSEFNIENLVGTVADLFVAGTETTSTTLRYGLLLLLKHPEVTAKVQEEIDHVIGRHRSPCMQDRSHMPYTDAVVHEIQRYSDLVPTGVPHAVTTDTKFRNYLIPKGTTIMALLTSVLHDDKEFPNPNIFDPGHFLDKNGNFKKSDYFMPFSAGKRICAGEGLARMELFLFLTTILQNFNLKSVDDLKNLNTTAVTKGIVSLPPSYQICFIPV
The data set is described as follows: Clinical studies and physiologically based pharmacokinetic modeling of OM as perpetrator. Type of data set: in vivo. Also on record: from tissue. Particulars: clinical studies and PBPK modeling; result in words.

Data set [3] in a line: Effect of food on OM systemic exposure. Particulars: healthy subjects; result in words. The data set is classed as in vivo, human.
In a further data set the test system is plasma proteins. The data set can be described thus: Plasma protein binding. Type of data set: in vitro ADME.
Data set [4] is described as follows: Single 35 mg dose of radiolabeled OM: blood to plasma ratio and excretion. The data set is classed as in vivo, human. Particulars: oral radiolabeled OM, healthy subjects. From the text: The volume of distribution at steady state was approximately 4.8-6.6 L/kg.
Clearance of OM after oral administration was primarily through metabolism in the liver. […] Following oral administration of radiolabeled OM to healthy subjects, approximately 49% of the dose was excreted in urine (primarily as metabolites with 8% of parent compound recovered) and 38% in feces (primarily as unchanged drug).

Entries after “also recorded” stand apart in the source; their conditions may differ.

MATE 2-K, sequence (Q86VL8 1-566 isoform Q86VL8-3): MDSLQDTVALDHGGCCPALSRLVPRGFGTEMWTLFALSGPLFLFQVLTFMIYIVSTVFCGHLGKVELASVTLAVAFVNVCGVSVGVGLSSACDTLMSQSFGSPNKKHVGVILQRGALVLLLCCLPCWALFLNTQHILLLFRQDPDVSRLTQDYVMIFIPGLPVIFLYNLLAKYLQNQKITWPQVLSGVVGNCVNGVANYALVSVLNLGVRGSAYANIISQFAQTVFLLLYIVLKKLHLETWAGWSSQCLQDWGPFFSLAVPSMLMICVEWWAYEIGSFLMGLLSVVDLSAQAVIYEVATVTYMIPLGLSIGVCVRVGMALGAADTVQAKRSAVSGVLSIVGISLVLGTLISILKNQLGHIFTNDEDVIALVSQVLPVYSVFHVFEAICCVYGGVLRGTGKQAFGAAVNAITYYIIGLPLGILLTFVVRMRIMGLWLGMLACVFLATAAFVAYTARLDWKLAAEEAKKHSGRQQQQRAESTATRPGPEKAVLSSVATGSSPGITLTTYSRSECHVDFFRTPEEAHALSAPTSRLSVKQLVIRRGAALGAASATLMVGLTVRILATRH
Text for CYP2C8: as §1

For the compound `COC(=O)N1CCN(Cc2cccc(NC(=O)Nc3ccc(C)nc3)c2F)CC1` [omecamtiv mecarbil], the results for the “Inhibition of BCRP” value on BCRP [1] and on BCRP [2] were “weak inhibitor” and “inhibitor”, respectively. In addition, the “Left ventricular systolic and diastolic volumes, natriuretic peptide concentrations and heart rate” value with patients with HFrEF (oral therapy for 20 weeks, chronic HFrEF) was “reduced left ventricular systolic and diastolic volumes, plasma natriuretic peptide concentrations and heart rate; also recorded: decreased left ventricular systolic and diastolic volumes”. Besides, the Cardiac performance result in the data set on patients with HFrEF (short-term intravenous and longer-term oral therapy) is given as “improved cardiac performance”. For the same compound, the “Inhibition of MATE 2-K” value on MATE 2-K is given as “inhibitor”. Moreover, at CYP2C8, the “Inhibition of CYP2C8” value is reported as “weak inhibitor”. Also, the “Effect of a high-fat, high-calorie meal on systemic exposure” value in data set [3] is reported as “no clinically significant effect”. Besides, the “Binding to plasma proteins” value in the data set on plasma proteins is listed as 81.5%. Besides, the “Concentration dependence of protein binding” value with plasma proteins (result in words) was “independent of drug concentration up to 4000 ng/mL”. For the same compound, the “Parent compound recovered in urine” value in data set [4] turned out to be 8%. The “Dose excreted in urine” value in data set [4] (primarily as metabolites) is listed as “approximately 49%”. Besides, the “Dose excreted in feces” value in data set [4] (primarily as unchanged drug) is listed as roughly 38%.

(Values after patent US12194039B2, “Methods of treating heart failure by administering omecamtiv mecarbil” (Cytokinetics, Inc., priority 2020, dated 2025).)
